Test results as given in patent publication US20110105515A1, “TARGETING THE ONCOPROTEIN NUCLEOPHOSMIN” (President and Fellows of Harvard College, priority 2007, published 2011).

Columns and labels:
Assay in all cases: cells
[1] = system: UACC-257; conditions: Homo sapiens, UACC-257, 48 h; for CC50: read-out: LC50
[2] = system: SK-OV-3; conditions: Homo sapiens, SK-OV-3, 48 h; for CC50: read-out: LC50
[3] = system: NCI/ADR-RES; conditions: Homo sapiens, 48 h; for CC50: read-out: LC50
[4] = system: ACHN; conditions: Homo sapiens, 48 h; for CC50: read-out: LC50
[5] = system: SN12C; conditions: Homo sapiens, 48 h; for CC50: read-out: LC50
[6] = system: UO-31; conditions: Homo sapiens, UO-31, 48 h; for CC50: read-out: LC50
[7] = system: HS578T; conditions: Homo sapiens, Hs-578T, 48 h
[8] = system: SNB-75; conditions: Homo sapiens, SNB-75, 48 h; for CC50: read-out: LC50
[9] = system: SNB-19; conditions: Homo sapiens, SNB-19, 48 h; for CC50: read-out: LC50
[10] = system: MDA-MB-468; conditions: Homo sapiens, MDA-MB-468, 48 h; for CC50: read-out: LC50
[11] = system: OVCAR-8; conditions: Homo sapiens, OVCAR-8, 48 h; for CC50: read-out: LC50
[12] = system: CCRF-CEM; conditions: Homo sapiens, 48 h
[13] = system: U251; conditions: Homo sapiens, U-251, 48 h; for CC50: read-out: LC50
[14] = system: SF-268; conditions: Homo sapiens, SF-268, 48 h; for CC50: read-out: LC50
[15] = system: M14; conditions: Homo sapiens, M14, 48 h; for CC50: read-out: LC50
[16] = system: UACC62; conditions: Homo sapiens, UACC-62, 48 h; for CC50: read-out: LC50
[17] = system: OVCAR-3; conditions: Homo sapiens, OVCAR-3, 48 h; for CC50: read-out: LC50
[18] = system: MALME-3M; conditions: Homo sapiens, 48 h; for CC50: read-out: LC50
[19] = system: HCT-116; conditions: Homo sapiens, HCT-116, 48 h; for CC50: read-out: LC50
[20] = system: OVCAR-4; conditions: Homo sapiens, OVCAR-4, 48 h
[21] = system: HT29; conditions: Homo sapiens, HT-29, 48 h; for CC50: read-out: LC50
[22] = system: K-562; conditions: Homo sapiens, K562, 48 h; for CC50: read-out: LC50
[23] = system: NCI-H226; conditions: Homo sapiens, NCI-H226, 48 h; for CC50: read-out: LC50
[24] = system: SK-MEL-5; conditions: Homo sapiens, SK-MEL-5, 48 h; for CC50: read-out: LC50
[25] = system: HOP-62; conditions: Homo sapiens, HOP-62, 48 h; for CC50: read-out: LC50
[26] = system: LOX IMVI; conditions: Homo sapiens, 48 h; for CC50: read-out: LC50
[27] = system: SF-295; conditions: Homo sapiens, SF-295, 48 h; for CC50: read-out: LC50
[28] = system: SW-620; conditions: Homo sapiens, SW-620, 48 h; for CC50: read-out: LC50
[29] = system: T-47D; conditions: Homo sapiens, T47D, 48 h
[30] = system: MCF7; conditions: Homo sapiens, MCF7, 48 h; for CC50: read-out: LC50
[31] = system: RPMI-8226; conditions: Homo sapiens, RPMI-8226, 48 h
[32] = system: MDA-MB-231/ATCC; conditions: Homo sapiens, MDA-MB-231, 48 h; for CC50: read-out: LC50
[33] = system: TK-10; conditions: Homo sapiens, TK-10, 48 h; for CC50: read-out: LC50
[34] = system: DU-145; conditions: Homo sapiens, DU-145, 48 h; for CC50: read-out: LC50
[35] = system: SF-539; conditions: Homo sapiens, SF-539, 48 h; for CC50: read-out: LC50
[36] = system: NCI-H460; conditions: Homo sapiens, NCI-H460, 48 h

Cc1cc(C)cc(-c2ccc3c(c2)[N+]([O-])=C2C3=C[C@@]34NC(=O)C5(CCCN5C3=O)CC4C2(C)C)c1 (some centres unmarked) [Biphenyl Analogue]
GI50 [1]: 0.272 µM | CC50 [1]: 3.74 µM | GI50 [2]: 0.3 µM | CC50 [2]: 3.45 µM | GI50 [3]: 0.992 µM | CC50 [3]: 5.18 µM | GI50 [4]: 0.214 µM | CC50 [4]: 2.26 µM | GI50 [5]: 0.214 µM | CC50 [5]: 2.52 µM | GI50 [6]: 0.19 µM | CC50 [6]: 2.76 µM | GI50 [7]: 0.546 µM | CC50 ([7]; read-out: LC50): > 100 µM | GI50 [8]: 0.242 µM | CC50 [8]: 3.86 µM | GI50 [9]: 0.238 µM | CC50 [9]: 3.09 µM | GI50 [10]: 0.16 µM | CC50 [10]: 3.03 µM | GI50 [11]: 0.277 µM | CC50 [11]: 3.3 µM | GI50 [12]: 0.105 µM | GI50 [13]: 0.136 µM | CC50 [13]: 0.547 µM | GI50 [14]: 0.236 µM | CC50 [14]: 3.32 µM | GI50 [15]: 0.205 µM | CC50 [15]: 2.18 µM | GI50 [16]: 0.161 µM | CC50 [16]: 1.85 µM | GI50 [17]: 0.158 µM | CC50 [17]: 0.986 µM | GI50 [18]: 0.0417 µM | CC50 [18]: 1.5 µM | GI50 [19]: 0.186 µM | CC50 [19]: 0.764 µM | GI50 [20]: 0.237 µM | GI50 [21]: 0.284 µM | CC50 [21]: > 100 µM | GI50 [22]: 0.124 µM | CC50 [22]: > 100 µM | GI50 [23]: 0.199 µM | CC50 [23]: 2.92 µM | GI50 [24]: 0.166 µM | CC50 [24]: 0.629 µM | GI50 [25]: 1.64 µM | CC50 [25]: 6.74 µM | GI50 [26]: 0.139 µM | CC50 [26]: 0.534 µM | GI50 [27]: 0.392 µM | CC50 [27]: 3.97 µM | GI50 [28]: 0.151 µM | CC50 [28]: 0.806 µM | GI50 [29]: 0.0576 µM | GI50 [30]: 0.212 µM | CC50 [30]: 5.51 µM | GI50 [31]: 0.0102 µM | GI50 [32]: 0.24 µM | CC50 [32]: 3.76 µM | GI50 [33]: 0.263 µM | CC50 [33]: 3.38 µM | GI50 [34]: 0.28 µM | CC50 [34]: 3.66 µM | GI50 [35]: 0.186 µM | CC50 [35]: 1.17 µM | GI50 [36]: 0.326 µM

[2H]On1c2c(c3ccc4c(c31)C=CC(C)(C)O4)C(OC([2H])([2H])[2H])[C@@]13NC(=O)C4(CCCN4C1=O)CC3C2(C)C (some centres unmarked) [Deuterated Methanol Adduct]
GI50 [1]: 0.587 µM | CC50 [1]: 4.45 µM | GI50 [2]: 1.01 µM | CC50 [2]: 4.65 µM | GI50 [3]: 2.61 µM | CC50 [3]: 39.4 µM | GI50 [4]: 1.27 µM | CC50 [4]: 5.03 µM | GI50 [5]: 1.12 µM | CC50 [5]: 4.82 µM | GI50 [6]: 0.498 µM | CC50 [6]: 4.29 µM | GI50 [7]: 0.492 µM | GI50 [8]: 0.265 µM | CC50 [8]: 4.72 µM | GI50 [9]: 1.11 µM | CC50 [9]: 4.81 µM | GI50 [10]: 0.292 µM | CC50 [10]: 6.96 µM | GI50 [11]: 0.96 µM | CC50 [11]: 4.77 µM | GI50 [12]: 0.185 µM | CC50 ([12]; read-out: LC50): 4.6 µM | GI50 [13]: 0.382 µM | CC50 [13]: 3.7 µM | GI50 [14]: 1.5 µM | CC50 [14]: 6.06 µM | GI50 [15]: 1.06 µM | CC50 [15]: 5.9 µM | GI50 [16]: 0.549 µM | CC50 [16]: 4.39 µM | GI50 [17]: 0.616 µM | CC50 [17]: 4.27 µM | GI50 [18]: 0.174 µM | CC50 [18]: 5.09 µM | GI50 [19]: 0.744 µM | CC50 [19]: 4.44 µM | GI50 [20]: 0.373 µM | CC50 ([20]; read-out: LC50): 4.14 µM | GI50 [21]: 1.26 µM | CC50 [21]: 68.1 µM | GI50 [22]: 0.576 µM | CC50 [22]: > 100 µM | GI50 [23]: 0.391 µM | CC50 [23]: 4.12 µM | GI50 [24]: 1.41 µM | CC50 [24]: 5.23 µM | GI50 [25]: 2.39 µM | CC50 [25]: 26.7 µM | GI50 [26]: 0.969 µM | CC50 [26]: 4.63 µM | GI50 [27]: 1.28 µM | CC50 [27]: 5.81 µM | GI50 [28]: 0.375 µM | CC50 [28]: 4.9 µM | GI50 [29]: 0.142 µM | GI50 [30]: 0.348 µM | CC50 [30]: 4.56 µM | GI50 [31]: 0.0402 µM | CC50 ([31]; read-out: LC50): 3.3 µM | GI50 [32]: 0.538 µM | CC50 [32]: 4.32 µM | GI50 [33]: 1.07 µM | CC50 [33]: 5.15 µM | GI50 [34]: 1.75 µM | CC50 [34]: 5.59 µM | GI50 [35]: 0.431 µM | CC50 [35]: 3.83 µM | GI50 [36]: 1.8 µM | CC50 ([36]; read-out: LC50): 7.17 µM
